Consider 26 compounds from patent US20250325534A1, “MICROBIOCIDAL TETRAHYDROISOQUINOLINE DERIVATIVES” (SYNGENTA CROP PROTECTION AG, priority 2021, published 2025).

Common to all, as to format: cell-based
For assay [1], the system named is Monographella nivalis. Kind of assay: Monographella nivalis (Microdochium nivale) / liquid culture (foot rot cereals). The following applies: 96 h, photometrically 4-5 days after application, read-out: control of Monographella nivalis. How it is done: Example B10: Monographella nivalis (Microdochium nivale)/Liquid Culture (Foot Rot Cereals) Conidia of the fungus from cryogenic storage are directly mixed into a nutrient broth (potato dextrose broth). After placing a DMSO solution of test compound into a microtiter plate (96-well format), the nutrient broth containing the fungal spores is added. The test plates are incubated at 24° C. and the inhibition of growth is determined photometrically 4-5 days after application.

Assay [2] deals with Mycosphaerella graminicola. The assay can be described thus: Mycosphaerella graminicola (Septoria tritici) / liquid culture (Septoria blotch). The following applies: Zymoseptoria tritici, 96 h, photometrically 4-5 days after application, read-out: control of Mycosphaerella graminicola. How it is done:
Example B19: Mycosphaerella graminicola (Septoria tritici)/Liquid Culture (Septoria Blotch) Conidia of the fungus from cryogenic storage are directly mixed into a nutrient broth (potato dextrose broth). After placing a DMSO solution of test compound into a microtiter plate (96-well format), the nutrient broth containing the fungal spores is added. The test plates are incubated at 24° C. and the inhibition of growth is determined photometrically 4-5 days after application.

Assay [3] deals with Mycosphaerella arachidis. The assay can be described thus: Mycosphaerella arachidis (Cercospora arachidicola) / liquid culture (early leaf spot). The following applies: 96 h, photometrically 4-5 days after application, read-out: control of Mycosphaerella arachidis. How it is done:
Example B11: Mycosphaerella arachidis (Cercospora arachidicola)/Liquid Culture (Early Leaf Spot) Conidia of the fungus from cryogenic storage are directly mixed into a nutrient broth (potato dextrose broth). After placing a DMSO solution of test compound into a microtiter plate (96-well format), the nutrient broth containing the fungal spores is added. The test plates are incubated at 24° C. and the inhibition of growth is determined photometrically 4-5 days after application.

A value given as a limit tells only on which side of the number the result lay.

As to `Cn1cc(C2CN(C(=O)c3ncc(-c4ccccc4)s3)Cc3ccccc32)cn1` (stereo not shown) [Compound P-156, [4-(1-methylpyrazol-4-yl)-3,4-dihydro-1H-isoquinolin-2-yl]-(5-phenylthiazol-2-yl)methanone], the inhibition of growth at 20 ppm in assay [1] and in assay [2] was ≥ 80% throughout.

With `CC1c2ccc(O)cc2C(C)(c2cnn(C)c2)CN1C(=O)c1cc(-c2ccc(F)cc2F)on1` (stereo not shown) [Compound P-35, [5-(2,4-difluorophenyl)isoxazol-3-yl]-[6-hydroxy-1,4-dimethyl-4-(1-methylpyrazol-4-yl)-1,3-dihydroisoquinolin-2-yl]methanone], the inhibition of growth at 20 ppm in assay [2] and in assay [3] was ≥ 80% in each case.

Turning to `CCC1c2ccccc2C(c2cnn(C)c2)CN1C(=O)c1cc(-c2ccc(F)cc2F)on1` (stereo not shown) [Compound P-36, [5-(2,4-difluorophenyl)isoxazol-3-yl]-[1-ethyl-4-(1-methylpyrazol-4-yl)-3,4-dihydro-1H-isoquinolin-2-yl]methanone], the inhibition of growth at 20 ppm in assay [1] and in assay [2] was ≥ 80% throughout.

Regarding `Cn1cc(C2CN(C(=O)c3cc(C4CCCC4)on3)Cc3ccccc32)cn1` (stereo not shown) [Compound P-176, (5-cyclopentylisoxazol-3-yl)-[4-(1-methylpyrazol-4-yl)-3,4-dihydro-1H-isoquinolin-2-yl]methanone], the inhibition of growth at 20 ppm in assay [2] and in assay [3] was ≥ 80% in each case.

As for `CC1c2ccc(OCC(F)F)cc2C(C)(c2cnn(C)c2)CN1C(=O)c1cc(-c2ccccc2)on1` (stereo not shown) [Compound P-26, [6-(2,2-difluoroethoxy)-1,4-dimethyl-4-(1-methylpyrazol-4-yl)-1,3-dihydroisoquinolin-2-yl]-(5-phenylisoxazol-3-yl)methanone], the inhibition of growth at 20 ppm in assay [2] and in assay [3] was ≥ 80% each time.

`Cc1ccc2c(c1)C(c1cnn(C)c1)CN(C(=O)c1cc(-c3ccccc3)on1)C2` (stereo not shown) [Compound P-137, [6-methyl-4-(1-methylpyrazol-4-yl)-3,4-dihydro-1H-isoquinolin-2-yl]-(5-phenylisoxazol-3-yl)methanone]: the inhibition of growth at 20 ppm in assay [2] and in assay [3] was ≥ 80% each time.

Turning to `Cc1cccc2c1CN(C(=O)c1cc(-c3ccc(F)cc3F)on1)CC2c1c(C)nn(C)c1C` (stereo not shown) [Compound P-114, [5-(2,4-difluorophenyl)isoxazol-3-yl]-[8-methyl-4-(1,3,5-trimethylpyrazol-4-yl)-3,4-dihydro-1H-isoquinolin-2-yl]methanone], the inhibition of growth at 20 ppm in assay [2] and in assay [3] was ≥ 80% each time.

On to `CC(=O)C1c2ccccc2C(c2cnn(C)c2)CN1C(=O)c1cc(-c2ccc(F)cc2F)on1` (stereo not shown) [Compound P-17, 1-[2-[5-(2,4-difluorophenyl)isoxazole-3-carbonyl]-4-(1-methylpyrazol-4-yl)-3,4-dihydro-1H-isoquinolin-1-yl]ethanone], for which the inhibition of growth at 20 ppm in assay [1] and in assay [2] was ≥ 80% in each case.

For `COc1ccc(-c2cc(C(=O)N3Cc4ccccc4C(c4cnn(C)c4)C3)no2)c(F)c1` (stereo not shown) [Compound P-74, [5-(2-fluoro-4-methoxy-phenyl)isoxazol-3-yl]-[4-(1-methylpyrazol-4-yl)-3,4-dihydro-1H-isoquinolin-2-yl]methanone], the inhibition of growth at 20 ppm in assay [1] is ≥ 80%.

As for `Cn1cc(C2CN(C(=O)c3cnc(-c4ccccc4)s3)Cc3ccccc32)cn1` (stereo not shown) [Compound P-164, [4-(1-methylpyrazol-4-yl)-3,4-dihydro-1H-isoquinolin-2-yl]-(2-phenylthiazol-5-yl)methanone], the inhibition of growth at 20 ppm in assay [1] and in assay [2] was ≥ 80% each time.

As for `Cc1nn(C)c(C)c1C1CN(C(=O)c2cc(-c3ccc(F)cc3F)on2)Cc2cccc(F)c21` (stereo not shown) [Compound P-123, [5-(2,4-difluorophenyl)isoxazol-3-yl]-[5-fluoro-4-(1,3,5-trimethylpyrazol-4-yl)-3,4-dihydro-1H-isoquinolin-2-yl]methanone], the inhibition of growth at 20 ppm in assay [2] and in assay [3] was ≥ 80% in each case.

As for `Cn1cc(C2CN(C(=O)c3cc(-c4ccc(F)cc4)no3)Cc3ccccc32)cn1` (stereo not shown) [Compound P-160, [3-(4-fluorophenyl)isoxazol-5-yl]-[4-(1-methylpyrazol-4-yl)-3,4-dihydro-1H-isoquinolin-2-yl]methanone], the inhibition of growth at 20 ppm in assay [1] and in assay [2] was ≥ 80% each time.

Take `CC1c2ccccc2C(c2cnn(C)c2)(C(C)C)CN1C(=O)c1cc(-c2ccc(F)cc2F)on1` (stereo not shown) [Compound P-220, [5-(2,4-difluorophenyl)isoxazol-3-yl]-[4-isopropyl-1-methyl-4-(1-methylpyrazol-4-yl)-1,3-dihydroisoquinolin-2-yl]methanone]: the inhibition of growth at 20 ppm in assay [2] and in assay [3] was ≥ 80% in each case.

On to `CC(C)C1(c2cnn(C)c2)CN(C(=O)c2cc(-c3ccc(F)cc3F)on2)Cc2ccccc21` (stereo not shown) [Compound P-246, [5-(2,4-difluorophenyl)isoxazol-3-yl]-[4-isopropyl-4-(1-methylpyrazol-4-yl)-1,3-dihydroisoquinolin-2-yl]methanone], for which the inhibition of growth at 20 ppm in assay [1] was ≥ 80%.

Regarding `C[C@H]1c2ccc(O)cc2[C@@H](c2cnn(C)c2)CN1C(=O)c1cc(-c2ccc(F)cc2F)on1` (racemic) [Compound P-245, [5-(2,4-difluorophenyl)isoxazol-3-yl]-[rac-(1S,4S)-6-hydroxy-1-methyl-4-(1-methylpyrazol-4-yl)-3,4-dihydro-1H-isoquinolin-2-yl]methanone], in assay [2], the inhibition of growth at 20 ppm is ≥ 80%.

On to `Cn1cc(C2CN(C(=O)c3cc(-c4ccccc4Cl)on3)Cc3ccccc32)cn1` (stereo not shown) [Compound P-197, [5-(2-chlorophenyl)isoxazol-3-yl]-[4-(1-methylpyrazol-4-yl)-3,4-dihydro-1H-isoquinolin-2-yl]methanone], for which the inhibition of growth at 20 ppm in assay [1] and in assay [2] was ≥ 80% throughout.

Regarding `CCCC1c2ccccc2C(c2cnn(C)c2)CN1C(=O)c1cc(-c2ccc(F)cc2F)on1` (stereo not shown) [Compound P-59, [5-(2,4-difluorophenyl)isoxazol-3-yl]-[4-(1-methylpyrazol-4-yl)-1-propyl-3,4-dihydro-1H-isoquinolin-2-yl]methanone], the inhibition of growth at 20 ppm in assay [2] was ≥ 80%.

Regarding `Cn1cc(C2CN(C(=O)c3ncc(C4CC4)o3)Cc3ccccc32)cn1` (stereo not shown) [Compound P-68, (5-cyclopropyloxazol-2-yl)-[4-(1-methylpyrazol-4-yl)-3,4-dihydro-1H-isoquinolin-2-yl]methanone], the inhibition of growth at 20 ppm in assay [2] was ≥ 80%.

Take `C#CCn1cc(C2CN(C(=O)c3cc(-c4ccccc4)on3)Cc3ccccc32)cn1` (stereo not shown) [Compound P-128, (5-phenylisoxazol-3-yl)-[4-(1-prop-2-ynylpyrazol-4-yl)-3,4-dihydro-1H-isoquinolin-2-yl]methanone]: the inhibition of growth at 20 ppm in assay [2] was ≥ 80%.

As to `Cn1cc(C2CN(C(=O)c3cc(C4CCCCC4)on3)Cc3ccccc32)cn1` (stereo not shown) [Compound P-177, (5-cyclohexylisoxazol-3-yl)-[4-(1-methylpyrazol-4-yl)-3,4-dihydro-1H-isoquinolin-2-yl]methanone], the inhibition of growth at 20 ppm in assay [1] and in assay [2] was ≥ 80% in each case.

As to `CC1c2ccc(O)cc2C(C)(c2cnn(C)c2)CN1C(=O)c1cc(-c2ccccc2)on1` (stereo not shown) [Compound P-29, [6-hydroxy-1,4-dimethyl-4-(1-methylpyrazol-4-yl)-1,3-dihydroisoquinolin-2-yl]-(5-phenylisoxazol-3-yl)methanone], in assay [2], the inhibition of growth at 20 ppm was ≥ 80%.

For the compound `Cn1cc(C2CN(C(=O)c3cc(-c4ccc(F)cc4F)on3)Cc3cc(-c4ccccc4)ccc32)cn1` (stereo not shown) [Compound P-21, [5-(2,4-difluorophenyl)isoxazol-3-yl]-[4-(1-methylpyrazol-4-yl)-7-phenyl-3,4-dihydro-1H-isoquinolin-2-yl]methanone], the inhibition of growth at 20 ppm in assay [2] is ≥ 80%.

On to `Cn1cc(C2CN(C(=O)c3cc(-c4cccc(F)c4F)on3)Cc3ccccc32)cn1` (stereo not shown) [Compound P-150, [5-(2,3-difluorophenyl)isoxazol-3-yl]-[4-(1-methylpyrazol-4-yl)-3,4-dihydro-1H-isoquinolin-2-yl]methanone], for which the inhibition of growth at 20 ppm in assay [2] is ≥ 80%.

For `CCCc1cc(C(=O)N2Cc3ccccc3C(c3cnn(C)c3)C2)no1` (stereo not shown) [Compound P-84, [4-(1-methylpyrazol-4-yl)-3,4-dihydro-1H-isoquinolin-2-yl]-(5-propylisoxazol-3-yl)methanone], the inhibition of growth at 20 ppm in assay [2] is ≥ 80%.

On to `COc1ccc2c(c1)[C@@H](c1cnn(C)c1)CN(C(=O)c1cc(-c3ccc(F)cc3F)on1)[C@@H]2C` (racemic) [Compound P-217, [5-(2,4-difluorophenyl)isoxazol-3-yl]-[rac-(1R,4S)-6-methoxy-1-methyl-4-(1-methylpyrazol-4-yl)-3,4-dihydro-1H-isoquinolin-2-yl]methanone], for which, in assay [2], the inhibition of growth at 20 ppm is ≥ 80%.

On to `CCC1(c2cnn(C)c2)CN(C(=O)c2cc(-c3ccc(F)cc3F)on2)Cc2ccccc21` (stereo not shown) [Compound P-248, [5-(2,4-difluorophenyl)isoxazol-3-yl]-[4-ethyl-4-(1-methylpyrazol-4-yl)-1,3-dihydroisoquinolin-2-yl]methanone], for which the inhibition of growth at 20 ppm in assay [1] was ≥ 80%.
